Experimental data taken from patent publication US4232148A, “6-Deoxyneamines” (The Upjohn Company, priority 1979, dated 1980).
In brackets after ≈: the same amount, converted by molar mass. Where two headings read alike, the source gives them in different places.

Experiments:
Assay type in all cases: cell-based
S. marcescens UC 131 = experiment: standard microplate test in BHI Agar, MIC; details: Serratia marcescens, UC131, 37°, 20 hours
Protocol: (§1) The compounds VII, XI, XVβ, XVα and XVI were tested in a standard microplate test in BHI (Brain Heart Infusion) Agar at a concentration of 1 mg./ml. and dilutions thereof at 37° incubation temperature. The end points are read at 20 hours. BHI Agar is supplied by Difco Laboratories, Detroit, Mich., U.S.A. and has the following compositions:
(§2) Calf brains, infusion from: 200 gm.
(§3) Beef heart, infusion from: 250 gm.
(§4) Bacto Proteose-peptone, Difco: 10 gm.
(§5) Bacto-Dextrose, Difco: 1 gm.
(§6) Disodium phosphate: 2.5 gm.

P. mirabilis UC 6671 = experiment: standard microplate test in BHI Agar, MIC; details: Proteus mirabilis, UC6671, 37°, 20 hours
Protocol: as §1, §2, §3, §4, §5, §6

S. flexneri UC 143 = experiment: standard microplate test in BHI Agar, MIC; details: Shigella flexneri, UC143, 37°, 20 hours
Protocol: as §1, §2, §3, §4, §5, §6

S. aureus UC 76 = experiment: standard microplate test in BHI Agar, MIC; details: Staphylococcus aureus, UC76, 20 h, read-out: Minimal Inhibitory Concentration
Protocol: as §1, §2, §3, §4, §5, §6

P. vulgaris UC 93 = experiment: standard microplate test in BHI Agar, MIC; details: Proteus vulgaris, UC93, 37°, 20 hours
Protocol: as §1, §2, §3, §4, §5, §6

E. coli UC 311 = experiment: standard microplate test in BHI Agar, MIC; details: Escherichia coli, UC311, 20 h, read-out: Minimal Inhibitory Concentration
Protocol: as §1, §2, §3, §4, §5, §6

S. faecalis UC 694 = experiment: standard microplate test in BHI Agar, MIC; details: Enterococcus faecalis
Protocol: as §1, §2, §3, §4, §5, §6

S. schottmuelleri UC 126 = experiment: standard microplate test in BHI Agar, MIC; details: 37°, 20 hours
Protocol: as §1, §2, §3, §4, §5, §6

D. pneumoniae UC 41 = experiment: standard microplate test in BHI Agar, MIC; details: Streptococcus pneumoniae, UC41, 37°, 20 hours, read-out: Minimal Inhibitory Concentration
Protocol: as §1, §2, §3, §4, §5, §6

E. coli UC 51 = experiment: standard disc plate assay, zone of inhibition; details: Escherichia coli, 12.5 mm paper discs
Excerpt: (§7) The compounds of formulas (V, VII, IX, XI, XIV, XVI, and XIX) are active as antibacterials and can be used in various environments to erradicate or control susceptible microorganisms. Tables I and II set forth the in vitro antibacterial test results for representative compounds of the present invention. The results were obtained with a standard disc plate assay using 12.5 mm paper discs.

S. schottmeulleri UC 126 = experiment: standard disc plate assay, zone of inhibition; details: 12.5 mm paper discs, read-out: Zones of Inhibition; for zone of inhibition at 1000 µg/mL: 1 mg/ml
Excerpt: as §7

K. pneumoniae UC 58 = experiment: standard microplate test in BHI Agar, MIC; details: Klebsiella pneumoniae, UC58, 20 h
Protocol: as §1, §2, §3, §4, §5, §6

S. pyogenes UC 152 = experiment: standard microplate test in BHI Agar, MIC; details: Streptococcus pyogenes, UC152, 20 h
Protocol: as §1, §2, §3, §4, §5, §6

P. morganii UC 3186 = experiment: standard microplate test in BHI Agar, MIC; details: Morganella morganii, UC3186, 20 h
Protocol: as §1, §2, §3, §4, §5, §6

S. typhi UC 215 = experiment: standard microplate test in BHI Agar, MIC; details: Salmonella enterica, 20 h, read-out: Minimal Inhibitory Concentration
Protocol: as §1, §2, §3, §4, §5, §6

S. lutea UC 130 = experiment: standard disc plate assay, zone of inhibition; details: Micrococcus luteus, UC130, read-out: Zones of Inhibition
Excerpt: as §7

B. cereus UC 3145 = experiment: standard disc plate assay, zone of inhibition; details: Bacillus cereus, UC3145, read-out: Zones of Inhibition, 1 mg/ml; 12.5 mm paper discs
Excerpt: as §7

E. coli UC 45 = experiment: standard microplate test in BHI Agar, MIC; details: Escherichia coli, UC45, 37°, 20 hours, read-out: Minimum Inhibitory Concentration
Protocol: as §1, §2, §3, §4, §5, §6

S. pneumoniae I UC 41 = experiment: standard microplate test in BHI Agar, MIC; details: Streptococcus pneumoniae, UC41, 37°, 20 hours, read-out: Minimum Inhibitory Concentration
Protocol: as §1, §2, §3, §4, §5, §6

S. aureus UC 80 = experiment: standard disc plate assay, zone of inhibition; details: Staphylococcus aureus, UC80, read-out: Zones of Inhibition, 1 mg/ml; 12.5 mm paper discs
Excerpt: as §7

[1] = read-out: Minimal Inhibitory Concentration
[2] = UC694, 20 h, read-out: Minimal Inhibitory Concentration
[3] = read-out: Minimum Inhibitory Concentration

SMILES	MIC (S. flexneri UC 143; [1])	MIC (S. aureus UC 76)	MIC (S. schottmuelleri UC 126; [1])	MIC (D. pneumoniae UC 41)	zone of inhibition at 1000 µg/mL (S. schottmeulleri UC 126)	MIC (S. faecalis UC 694; [2])	MIC (P. mirabilis UC 6671; [3])	MIC (S. flexneri UC 143; [3])	MIC (E. coli UC 45)	MIC (P. vulgaris UC 93; [3])	MIC (S. pneumoniae I UC 41)	MIC (P. morganii UC 3186; [3])	MIC (S. schottmuelleri UC 126; [3])	further results
NC[C@H]1O[C@H](O[C@@H]2[C@@H](N)C[C@@H](N)C[C@H]2OC2O[C@H](CO)[C@@H](O)[C@H]2O)[C@H](N)[C@@H](O)[C@@H]1O (single isomer, unassigned) [Compound XVβ, O-2,6-Diamino-2,6-dideoxy-α-D-glucopyranosyl (1→4)-O-[β-D-ribofuranosyl(1→5)]-2,6-dideoxy-D-streptamine]	31.2 µg/mL (≈ 71.2 µM)	31.2 µg/mL (≈ 71.2 µM)	7.8 µg/mL (≈ 17.8 µM)	15.6 µg/mL (≈ 35.6 µM)	24 mm	–	–	–	–	–	–	–	–	MIC (S. marcescens UC 131; [1]): 62.5 µg/mL (≈ 143 µM); MIC (P. mirabilis UC 6671; [1]): 125 µg/mL (≈ 285 µM); MIC (P. vulgaris UC 93; [1]): 31.2 µg/mL (≈ 71.2 µM); MIC (E. coli UC 311): 31.2 µg/mL (≈ 71.2 µM); MIC (S. faecalis UC 694; UC694, BHI Agar, 37°, 20 hours, read-out: Minimal Inhibitory Concentration): 500 µg/mL (≈ 1140 µM); zone of inhibition at 100 µg/mL (E. coli UC 51; UC51, 0.1 mg/ml, read-out: Zones of Inhibition): 20 mm; zone of inhibition at 100 µg/mL (S. schottmeulleri UC 126; 0.1 mg/ml): 16 mm
NC[C@H]1O[C@H](O[C@@H]2[C@@H](N)C[C@@H](N)C[C@H]2OC2O[C@H](CO)[C@@H](O)[C@H]2O)[C@H](N)[C@@H](O)[C@@H]1O (single isomer, unassigned) [Compound XVα, O-2,6-Diamino-2,6-dideoxy-α-D-glucopyranosyl (1→4)-O-[α-D-ribofuranosyl(1→5)]-2,6-dideoxy-D-streptamine]	500 µg/mL (≈ 1140 µM)	125 µg/mL (≈ 285 µM)	125 µg/mL (≈ 285 µM)	125 µg/mL (≈ 285 µM)	20 mm	> 500 µg/mL	–	–	–	–	–	–	–	MIC (K. pneumoniae UC 58; [1]): 15.6 µg/mL (≈ 35.6 µM); MIC (S. pyogenes UC 152; [1]): 31.2 µg/mL (≈ 71.2 µM); MIC (P. morganii UC 3186; [1]): 125 µg/mL (≈ 285 µM); MIC (S. typhi UC 215): 62.5 µg/mL (≈ 143 µM); zone of inhibition at 1000 µg/mL (S. lutea UC 130): 16 mm; zone of inhibition at 1000 µg/mL (E. coli UC 51; UC51, read-out: Zones of Inhibition, 1 mg/ml): 24 mm; zone of inhibition at 1000 µg/mL (B. cereus UC 3145): 20 mm
C[C@@]1(O)C[C@H](N)C[C@H](N)[C@H]1O[C@H]1O[C@H](CN)[C@@H](O)[C@H](O)[C@H]1N [6-Deoxy-5-methylneamine, 6-Deoxy-5-methyl-neamine]	–	–	–	–	21 mm	–	250 µg/mL (≈ 780 µM)	125 µg/mL (≈ 390 µM)	125 µg/mL (≈ 390 µM)	62.5 µg/mL (≈ 195 µM)	62.5 µg/mL (≈ 195 µM)	125 µg/mL (≈ 390 µM)	62.5 µg/mL (≈ 195 µM)	MIC (S. marcescens UC 131; [3]): 125 µg/mL (≈ 390 µM); MIC (K. pneumoniae UC 58; [3]): 15.6 µg/mL (≈ 48.7 µM); MIC (S. pyogenes UC 152; [3]): 7.8 µg/mL (≈ 24.3 µM); MIC (S. faecalis UC 694; UC694, 20 h, read-out: Minimum Inhibitory Concentration): > 500 µg/mL
NC[C@H]1O[C@H](O[C@H]2[C@H](O)C[C@H](N)C[C@@H]2N)[C@H](N)[C@@H](O)[C@@H]1O [6-deoxyneamine, 6-Deoxyneamine]	–	–	–	–	–	–	62.5 µg/mL (≈ 204 µM)	62.5 µg/mL (≈ 204 µM)	31.2 µg/mL (≈ 102 µM)	31.2 µg/mL (≈ 102 µM)	62.5 µg/mL (≈ 204 µM)	62.5 µg/mL (≈ 204 µM)	31.2 µg/mL (≈ 102 µM)	–
NC[C@H]1O[C@H](O[C@@H]2[C@@H](N)C[C@@H](N)C[C@@H]2O)[C@H](N)[C@@H](O)[C@@H]1O [6-Deoxy-5-epineamine]	–	–	–	–	21 mm	–	–	–	–	–	–	–	–	–
NC[C@H]1O[C@H](O[C@@H]2[C@@H](N)C[C@@H](N)C[C@H]2O[C@@H]2C[C@@H](N)[C@H](O)[C@@H](CO)O2)[C@H](N)[C@@H](O)[C@@H]1O [Compound XVI, O-2,6-Diamino-2,6-dideoxy-α-D-glucopyranosyl (1→4)-O-[3-amino-2,3-dideoxy-α-D-arabinohexopyranosyl(1→5)-2,6-dideoxy-D-streptamine]]	> 500 µg/mL	–	> 500 µg/mL	–	15 mm	> 500 µg/mL	–	–	–	–	–	–	–	zone of inhibition at 1000 µg/mL (S. aureus UC 80): 21 mm
